According to publication PMC9321894, “Design and Anticancer Properties of New Water-Soluble Ruthenium–Cyclopentadienyl Complexes” (Pharmaceuticals, 2022):

Tests used:
[1] = target: T1, fatty-acid-free human serum albumin (HSA^faf) (Homo sapiens, UniProt P02768); experiment: Fluorescence quenching of HSA^faf (Trp214); type: binding; conditions: for KSV: pH 7.4
T1 construct: purchased Sigma-Aldrich A3782
Description: Human serum albumin (HSA) was dissolved in 10 mM HEPES buffer (pH 7.4). The HSA concentration was determined spectrophotometrically using the absorbance value at 280 nm (ε280 = 36,500 M^−1cm^−1). Complex 6 was dissolved in 10 mM HEPES buffer (pH 7.4). A series of ruthenium-protein batch solutions were prepared by adding different concentrations of ruthenium solutions to the protein solution prepared previously. For fluorescence acquisition, the final HSA concentration was 2.5 μM, and the ruthenium were 0, 0.6, 1.2, 1.8, 2.5, 5, 7.5, 10, 12.5, 15, 17.5, 20, 22.5, 25, 27.5, 30, 32.5, 35, 37.5, 40, 42.5, and 45 μM. […] The reference solutions were prepared following the procedures described above without protein.
Steady-state fluorescence measurements were carried out with a Fluorolog Model-3.22 spectrofluorometer from Horiba Jobin Yvon at 293.15, 298.15, and 310.15 K. All measurements were performed in Hellma® semi-micro fluorescence cuvettes (Suprasil® quartz, path length 10 × 4 mm, chamber volume […]) with the 10 mm path length for the excitation of the sample. The excitation and emission slit widths were fixed at 4.0 nm, and the excitation wavelength was set at 295 nm to selectively excite the tryptophan 214 residue. The emission spectra were recorded from 305 to 550 nm. Solutions of ruthenium complex in 10 mM HEPES buffer pH 7.4 in corresponding concentrations were used as reference for the measured fluorescence spectra of protein-complex mixtures. […] The fluorescence intensities were corrected for the absorption of the exciting light and re-absorption of the emitted light to decrease the inner filter effect using UV–visible absorption data recorded for each sample on a Jasco V-660 spectrophotometer in the range of 260 to 900 nm with 1 cm path quartz cells.
Fluorescence quenching of HSA by complex [Ru(η5-C5H5)(mTPPMS)(bopy)][CF3SO3] (6) […]
F0 = 1 + K τ (Q) = 1 + K (Q) (S1) where F0 and F are the fluorescence intensities of HSA in the absence and presence of the quencher [Ru(η5-C5H5)(mTPPMS)(bopy)][CF3SO3]; [Q] is the quencher concentration; Kq is the bimolecular quenching constant; t0 is the average fluorescence lifetime of HSA in the absence of the quencher, and KSV is the Stern-Volmer quenching constant.
Figure S10. Stern-Volmer plots at pH7.4 for the quenching of (A) HSA and (B) HSA faf by [Ru(η5-C5H5)(mTPPMS)(bopy)][CF3SO3] at three temperatures (◆) 293 K, (●) 298 K, (▲) 310 K.
log(F0 − F) = log K + nlog[Q] ( S2) […]
where Ka is the association constant for a site and n is the number of binding sites by protein.
Figure S11. Double-log plots for the fluorescence quenching for the (A) {HSA-[Ru(η5-C5H5)(mTPPMS)(bopy)][CF3SO3]} and (B) {HSAfaf-[Ru(η5-C5H5)(mTPPMS)(bopy)][CF3SO3]} systems at three temperatures (◆) 293 K, (●) 298 K, (▲) 310 K. […]

[2] = tested on: A2780 ovarian cancer cells; experiment: MTT cytotoxicity assay, A2780; type: cell-based, human; conditions: A2780, 72 h, mean ± SD n = 3
Description: (§1) The cytotoxic activity of all complexes was screened against A2780 (ovarian, Sigma-Aldrich, Lisboa, Portugal), MDAMB231 (breast, triple negative, ATCC), and HT29 (colon, ATCC) human cancer cells. Cells were grown in RPMI 1640 (A2780) or DMEM containing GlutaMax-I (MDAMB231), or McCoy’s (HT29) supplemented with 10% FBS and 1% penicillin/streptomycin (Invitrogen, Lisboa, Portugal). All cell lines were kept in a CO2 incubator (Heraeus, Hanau, Germany) with 5% CO2 at 37 °C in a humidified atmosphere. Cell viability was measured using the colorimetric MTT (3-(4,5-dimethylthiazol-2-yl)-2,5-diphenyltetrazolium bromide) assay. For the assays, cells were seeded in 200 μL of complete medium in 96-well plates and incubated at 37 °C for 24 h prior to complex treatment to allow cell adherence. The stock solutions in water (20 mM) of the complexes were freshly prepared and used for sequential dilutions in medium within the concentration range of 10^−10–10^−4 M. Cisplatin was also included in this study as a positive control. After careful removal of the medium, […] of a serial dilution of compounds in fresh medium was added to the cells, and incubation was carried out for 72 h at 37 °C. At the end of the treatment, the medium was discarded, and the cells were incubated with […] of an MTT solution in PBS (0.5 mg mL^−1). After 3 h incubation, medium was removed, and DMSO was added to solubilize the purple formazan crystals formed. The absorbance at 570 nm was measured using a plate spectrophotometer (Power Wave Xs, Bio-Tek, Winooski, VT, USA). Each experiment was repeated at least three times and each concentration tested in at least six replicates. The IC50 values were calculated from dose–response curves analyzed with the GraphPad Prism software (version 5.0).

[3] = n-Octanol/water partition coefficient, shake-flask method; type: physicochemical; conditions: room temperature
Description: The lipophilicity of the complexes was measured by the shake-flask method. Distilled water and n-octanol were mixed vigorously for 24 h at 25 °C, to promote solvent saturation in both phases, before the experiments. […] Aliquots of stock solutions were equilibrated with octanol for 4 h in a mechanical shaker. The phase ratio was 2 mL/2 mL (water/n-octanol). The aqueous and octanol layers were carefully separated (by centrifugation at 5000 rpm for 10 min), and UV–vis absorption spectra of the compounds were registered in both phases. The concentration for each sample was determined using the calibration curve. Triplicate experiments have been performed for each complex and the averages were calculated.

[4] = tested on: MDAMB231 triple-negative breast cancer cells; experiment: MTT cytotoxicity assay, MDAMB231; type: cell-based, human; conditions: MDAMB231, 72 h, mean ± SD n = 3
Description: as §1

T1 sequence (P02768 25-609): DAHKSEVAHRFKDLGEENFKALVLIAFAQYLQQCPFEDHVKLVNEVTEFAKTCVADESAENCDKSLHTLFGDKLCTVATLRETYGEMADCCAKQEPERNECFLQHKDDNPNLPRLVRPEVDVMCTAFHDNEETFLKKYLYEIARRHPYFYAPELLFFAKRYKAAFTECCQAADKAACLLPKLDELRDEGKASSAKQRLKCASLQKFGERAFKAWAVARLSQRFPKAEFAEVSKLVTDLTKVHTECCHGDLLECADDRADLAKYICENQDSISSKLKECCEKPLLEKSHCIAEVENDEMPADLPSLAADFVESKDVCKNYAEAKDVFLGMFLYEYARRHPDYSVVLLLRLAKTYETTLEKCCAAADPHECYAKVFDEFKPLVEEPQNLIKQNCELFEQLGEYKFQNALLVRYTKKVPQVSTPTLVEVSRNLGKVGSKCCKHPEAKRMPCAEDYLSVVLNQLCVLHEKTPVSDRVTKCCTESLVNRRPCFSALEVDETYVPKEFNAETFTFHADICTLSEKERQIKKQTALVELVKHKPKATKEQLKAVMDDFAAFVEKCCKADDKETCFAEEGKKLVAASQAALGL

Question: For “[RuCp(mTPPMSNa)(bopy)][CF3SO3] [Compound 6]”, which “Ka (association constant for a site)” value ([1]; 293.15 K) is on record?
Answer: (57.293 ± 1.27) × 10^4 L mol^−1

Question: And the Kq ([1]; 293.15 K)?
Answer: (28.7 ± 0.49) × 10^12 L mol^−1 s^−1

Question: And the “n (number of binding sites)” value ([1]; 293.15 K)?
Answer: 1.048

Question: What about the ΔG ([1]; 293.15 K) of the same substance?
Answer: -37.426 kcal/mol

Question: What about the KSV ([1]; 293.15 K) of the same substance?
Answer: (28.7 ± 0.49) × 10^4 L mol^−1

Question: And the “Ka (association constant for a site)” value ([1]; 298.15 K)?
Answer: (66.764 ± 1.29) × 10^4 L mol^−1

Question: What about the Kq ([1]; 298.15 K) of the same substance?
Answer: (40.7 ± 0.75) × 10^12 L mol^−1 s^−1

Question: And the “n (number of binding sites)” value ([1]; 298.15 K)?
Answer: 1.023

Question: What about the ΔG ([1]; 298.15 K) of the same substance?
Answer: -37.899 kcal/mol

Question: What about the KSV ([1]; 298.15 K) of the same substance?
Answer: (40.7 ± 0.75) × 10^4 L mol^−1

Question: And the “Ka (association constant for a site)” value ([1]; 310.15 K)?
Answer: (80.668 ± 1.17) × 10^4 L mol^−1

Question: And the Kq ([1]; 310.15 K)?
Answer: (72.6 ± 1.02) × 10^12 L mol^−1 s^−1

Question: And the “n (number of binding sites)” value ([1]; 310.15 K)?
Answer: 1.006

Question: What about the ΔG ([1]; 310.15 K) of the same substance?
Answer: -39.034 kcal/mol

Question: What about the KSV ([1]; 310.15 K) of the same substance?
Answer: (72.6 ± 1.02) × 10^4 L mol^−1

Question: And the ΔH ([1]; Van't Hoff, 293.15-310.15 K)?
Answer: 40.51 (R^2 = 0.9938) kJ mol^−1

Question: What about the ΔS ([1]; Van't Hoff, 293.15-310.15 K) of the same substance?
Answer: 396.16 J mol^−1 K^−1

Question: And the “Quenching of fluorescence intensity” value ([1]; highest Ru concentration (45 μM), pH 7.4, incubation at 298 K for 24 h)?
Answer: 97%

Question: And the IC50 [2]?
Answer: 0.37 ± 0.2 µM

Question: And the “Log Po/w” value [3]?
Answer: 5.68 ± 0.05

Question: What about the IC50 [4] of the same substance?
Answer: 13.4 ± 0.4 µM
